ChEMBL document CHEMBL5291721, “A preclinical secondary pharmacology resource illuminates target-adverse drug reaction associations of marketed drugs” (Nat Commun, 2023)

What was measured:
Motilin receptor = Motilin receptor (Homo sapiens, UniProt O43193)
[1] = biological target: T1, Alpha-2C adrenergic receptor (Homo sapiens, UniProt P18825); format: functional
T1 sequence (P18825 whole entry): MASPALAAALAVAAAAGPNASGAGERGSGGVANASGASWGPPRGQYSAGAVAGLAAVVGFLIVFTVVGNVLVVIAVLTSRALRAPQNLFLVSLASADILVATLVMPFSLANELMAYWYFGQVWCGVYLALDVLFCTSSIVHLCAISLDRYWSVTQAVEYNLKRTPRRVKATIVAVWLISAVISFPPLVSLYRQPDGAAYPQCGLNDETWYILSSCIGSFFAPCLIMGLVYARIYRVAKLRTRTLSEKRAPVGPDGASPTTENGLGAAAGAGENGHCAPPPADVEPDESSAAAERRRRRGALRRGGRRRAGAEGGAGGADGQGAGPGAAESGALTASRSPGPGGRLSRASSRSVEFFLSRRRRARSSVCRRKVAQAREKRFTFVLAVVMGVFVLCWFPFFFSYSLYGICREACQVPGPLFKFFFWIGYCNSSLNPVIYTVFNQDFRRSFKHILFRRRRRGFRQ

[2] = biological target: Gamma-aminobutyric acid receptor subunit alpha-1 (Rattus norvegicus, UniProt P62813)
[3] = biological target: 5-hydroxytryptamine receptor 2B (Homo sapiens, UniProt P41595); format: functional, cell-based
Cannabinoid receptor 1 = Cannabinoid receptor 1 (Homo sapiens, UniProt P21554); format: functional, cell-based
[4] = biological target: Sodium-dependent dopamine transporter (Homo sapiens, UniProt Q01959)
[5] = biological target: T2, Muscarinic acetylcholine receptor M1 (Homo sapiens, UniProt P11229); format: functional
T2 sequence (P11229 whole entry): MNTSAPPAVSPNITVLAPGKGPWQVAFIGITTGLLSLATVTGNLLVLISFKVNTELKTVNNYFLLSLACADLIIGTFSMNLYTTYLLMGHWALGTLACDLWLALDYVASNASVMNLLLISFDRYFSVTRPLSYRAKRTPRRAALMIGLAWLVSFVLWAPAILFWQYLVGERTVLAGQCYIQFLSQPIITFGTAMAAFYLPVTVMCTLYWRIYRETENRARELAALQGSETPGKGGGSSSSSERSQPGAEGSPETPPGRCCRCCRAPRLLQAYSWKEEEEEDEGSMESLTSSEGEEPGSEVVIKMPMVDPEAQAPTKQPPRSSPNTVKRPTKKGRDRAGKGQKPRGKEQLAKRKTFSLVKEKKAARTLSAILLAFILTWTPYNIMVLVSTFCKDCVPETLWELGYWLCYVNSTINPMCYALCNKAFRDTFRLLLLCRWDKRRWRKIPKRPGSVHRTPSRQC

[6] = biological target: Growth hormone secretagogue receptor type 1 (Homo sapiens, UniProt Q92847)
D(3) dopamine receptor = D(3) dopamine receptor (Homo sapiens, UniProt P35462)
Adenosine receptor A2a = Adenosine receptor A2a (Homo sapiens, UniProt P29274)
[7] = biological target: Sodium-dependent serotonin transporter (Homo sapiens, UniProt P31645)
[8] = biological target: 5-hydroxytryptamine receptor 2A (Homo sapiens, UniProt P28223); format: functional, cell-based
[9] = biological target: T3, Muscarinic acetylcholine receptor M2 (Homo sapiens, UniProt P08172); format: functional, cell-based
T3 sequence (P08172 whole entry): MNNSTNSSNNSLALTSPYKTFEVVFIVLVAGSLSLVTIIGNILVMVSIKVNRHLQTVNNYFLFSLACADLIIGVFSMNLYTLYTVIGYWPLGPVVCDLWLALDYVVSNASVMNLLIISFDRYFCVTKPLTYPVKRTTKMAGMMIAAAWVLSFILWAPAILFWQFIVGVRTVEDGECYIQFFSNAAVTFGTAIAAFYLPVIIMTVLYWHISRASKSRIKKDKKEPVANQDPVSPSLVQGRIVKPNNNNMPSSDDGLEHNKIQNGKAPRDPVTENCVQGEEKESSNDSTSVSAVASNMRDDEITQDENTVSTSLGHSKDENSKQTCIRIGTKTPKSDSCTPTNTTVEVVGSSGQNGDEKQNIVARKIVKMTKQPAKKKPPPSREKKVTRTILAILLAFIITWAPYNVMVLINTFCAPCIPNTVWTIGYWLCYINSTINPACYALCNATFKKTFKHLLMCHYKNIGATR

[10] = biological target: T4, 5-hydroxytryptamine receptor 2C (Homo sapiens, UniProt P28335)
T4 sequence (P28335 whole entry): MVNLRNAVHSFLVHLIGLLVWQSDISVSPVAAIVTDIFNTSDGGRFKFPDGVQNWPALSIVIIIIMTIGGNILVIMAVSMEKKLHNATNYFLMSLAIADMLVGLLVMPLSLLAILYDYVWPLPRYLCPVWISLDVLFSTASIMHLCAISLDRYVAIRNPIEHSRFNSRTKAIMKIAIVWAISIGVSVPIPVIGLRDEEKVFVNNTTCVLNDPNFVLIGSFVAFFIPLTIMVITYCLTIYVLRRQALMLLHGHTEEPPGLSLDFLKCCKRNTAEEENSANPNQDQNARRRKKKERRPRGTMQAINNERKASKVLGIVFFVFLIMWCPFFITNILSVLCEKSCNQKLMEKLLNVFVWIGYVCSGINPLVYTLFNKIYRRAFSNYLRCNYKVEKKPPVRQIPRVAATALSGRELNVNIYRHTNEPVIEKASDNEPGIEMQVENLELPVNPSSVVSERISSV

[11] = biological target: T5, Gastrin/cholecystokinin type B receptor (Homo sapiens, UniProt P32239)
T5 sequence (P32239 whole entry): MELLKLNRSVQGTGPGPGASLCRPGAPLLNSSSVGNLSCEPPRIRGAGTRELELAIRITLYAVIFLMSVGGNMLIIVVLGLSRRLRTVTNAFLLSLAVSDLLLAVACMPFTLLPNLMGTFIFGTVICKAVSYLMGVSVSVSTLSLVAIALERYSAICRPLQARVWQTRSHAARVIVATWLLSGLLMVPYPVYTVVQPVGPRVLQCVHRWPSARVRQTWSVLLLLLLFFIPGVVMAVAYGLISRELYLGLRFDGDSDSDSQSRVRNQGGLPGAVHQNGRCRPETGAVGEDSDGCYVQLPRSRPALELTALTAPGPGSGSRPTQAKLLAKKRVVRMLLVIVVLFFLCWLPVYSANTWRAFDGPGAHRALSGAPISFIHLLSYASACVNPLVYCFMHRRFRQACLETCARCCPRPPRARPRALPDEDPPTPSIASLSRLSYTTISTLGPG
Further: assay procedure not described here.

Sequence of Cannabinoid receptor 1 (P21554 whole entry): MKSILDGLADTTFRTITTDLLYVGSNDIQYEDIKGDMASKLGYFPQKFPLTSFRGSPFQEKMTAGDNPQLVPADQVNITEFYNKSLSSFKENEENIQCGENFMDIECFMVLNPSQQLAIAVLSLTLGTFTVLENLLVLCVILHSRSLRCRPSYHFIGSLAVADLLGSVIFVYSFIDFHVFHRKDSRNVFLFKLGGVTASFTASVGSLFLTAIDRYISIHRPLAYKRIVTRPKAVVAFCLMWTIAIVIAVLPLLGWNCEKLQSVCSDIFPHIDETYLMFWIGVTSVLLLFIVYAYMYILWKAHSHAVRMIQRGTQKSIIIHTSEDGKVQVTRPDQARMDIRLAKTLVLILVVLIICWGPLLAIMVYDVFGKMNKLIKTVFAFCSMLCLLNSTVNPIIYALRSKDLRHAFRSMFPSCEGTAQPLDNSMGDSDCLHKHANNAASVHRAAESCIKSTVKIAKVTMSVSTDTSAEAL
Sequence of 5-hydroxytryptamine receptor 2A (P28223 whole entry): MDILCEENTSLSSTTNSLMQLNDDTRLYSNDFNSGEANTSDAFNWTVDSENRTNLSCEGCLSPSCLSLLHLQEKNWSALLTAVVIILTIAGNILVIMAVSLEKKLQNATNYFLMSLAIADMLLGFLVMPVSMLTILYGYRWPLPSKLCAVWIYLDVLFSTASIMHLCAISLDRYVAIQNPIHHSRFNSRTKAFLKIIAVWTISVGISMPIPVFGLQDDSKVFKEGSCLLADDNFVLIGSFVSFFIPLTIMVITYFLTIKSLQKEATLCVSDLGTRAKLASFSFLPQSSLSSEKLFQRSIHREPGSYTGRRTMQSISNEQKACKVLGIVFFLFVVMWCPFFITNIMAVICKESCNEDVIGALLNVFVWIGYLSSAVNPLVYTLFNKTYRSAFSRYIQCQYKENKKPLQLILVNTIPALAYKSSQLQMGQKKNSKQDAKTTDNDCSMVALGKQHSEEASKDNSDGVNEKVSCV
Sequence of Motilin receptor (O43193 whole entry): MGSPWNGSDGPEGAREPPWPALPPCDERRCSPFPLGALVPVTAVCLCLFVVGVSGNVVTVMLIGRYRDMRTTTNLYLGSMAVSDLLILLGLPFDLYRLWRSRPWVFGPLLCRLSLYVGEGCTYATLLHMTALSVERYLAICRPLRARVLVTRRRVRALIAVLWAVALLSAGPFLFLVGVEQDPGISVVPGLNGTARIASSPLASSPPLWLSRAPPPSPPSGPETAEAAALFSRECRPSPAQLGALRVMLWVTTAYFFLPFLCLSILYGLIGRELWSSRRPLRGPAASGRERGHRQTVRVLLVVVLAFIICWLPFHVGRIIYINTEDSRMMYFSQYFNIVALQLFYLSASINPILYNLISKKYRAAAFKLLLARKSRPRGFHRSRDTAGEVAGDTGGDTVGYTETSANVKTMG
Sequence of Sodium-dependent serotonin transporter (P31645 whole entry): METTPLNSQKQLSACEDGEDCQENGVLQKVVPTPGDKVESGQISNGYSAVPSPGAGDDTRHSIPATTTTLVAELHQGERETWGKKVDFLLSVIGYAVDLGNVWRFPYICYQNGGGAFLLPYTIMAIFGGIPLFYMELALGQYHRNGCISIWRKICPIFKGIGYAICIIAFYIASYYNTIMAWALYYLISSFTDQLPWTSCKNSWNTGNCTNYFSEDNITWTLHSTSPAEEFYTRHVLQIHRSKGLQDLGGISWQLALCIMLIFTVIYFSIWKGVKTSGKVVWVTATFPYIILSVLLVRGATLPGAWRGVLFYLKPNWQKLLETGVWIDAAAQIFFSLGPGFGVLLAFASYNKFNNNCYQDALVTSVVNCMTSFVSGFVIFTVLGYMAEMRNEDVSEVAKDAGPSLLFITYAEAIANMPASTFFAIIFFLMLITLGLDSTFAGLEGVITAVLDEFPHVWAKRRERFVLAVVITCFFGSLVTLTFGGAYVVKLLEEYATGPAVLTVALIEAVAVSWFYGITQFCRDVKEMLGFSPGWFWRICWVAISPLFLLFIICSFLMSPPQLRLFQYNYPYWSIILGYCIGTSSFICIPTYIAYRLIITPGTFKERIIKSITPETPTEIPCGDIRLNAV
Sequence of 5-hydroxytryptamine receptor 2B (P41595 whole entry): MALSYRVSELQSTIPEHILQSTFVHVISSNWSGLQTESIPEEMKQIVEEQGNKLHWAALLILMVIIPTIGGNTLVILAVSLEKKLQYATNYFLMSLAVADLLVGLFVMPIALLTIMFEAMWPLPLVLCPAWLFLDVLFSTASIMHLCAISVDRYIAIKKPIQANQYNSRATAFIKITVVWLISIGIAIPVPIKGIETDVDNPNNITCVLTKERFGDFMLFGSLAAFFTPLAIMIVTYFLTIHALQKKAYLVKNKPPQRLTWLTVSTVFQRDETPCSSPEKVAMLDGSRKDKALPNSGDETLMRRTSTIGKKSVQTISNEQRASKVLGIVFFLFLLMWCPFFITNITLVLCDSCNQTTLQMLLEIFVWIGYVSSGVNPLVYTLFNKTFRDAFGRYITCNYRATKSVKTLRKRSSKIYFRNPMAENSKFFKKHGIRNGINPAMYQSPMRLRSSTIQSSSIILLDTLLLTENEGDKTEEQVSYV
Sequence of Adenosine receptor A2a (P29274 whole entry): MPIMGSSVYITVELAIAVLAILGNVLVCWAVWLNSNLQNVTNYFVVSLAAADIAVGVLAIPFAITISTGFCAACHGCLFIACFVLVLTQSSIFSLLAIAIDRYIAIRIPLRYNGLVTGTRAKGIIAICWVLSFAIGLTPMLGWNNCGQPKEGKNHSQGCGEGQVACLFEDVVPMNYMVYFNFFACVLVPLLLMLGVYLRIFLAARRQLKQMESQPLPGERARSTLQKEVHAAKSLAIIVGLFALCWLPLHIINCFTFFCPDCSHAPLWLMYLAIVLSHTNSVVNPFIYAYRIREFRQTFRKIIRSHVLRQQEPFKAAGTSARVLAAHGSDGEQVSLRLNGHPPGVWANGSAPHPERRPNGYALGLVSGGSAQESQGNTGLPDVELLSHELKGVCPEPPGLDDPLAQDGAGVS
Sequence of Growth hormone secretagogue receptor type 1 (Q92847 whole entry): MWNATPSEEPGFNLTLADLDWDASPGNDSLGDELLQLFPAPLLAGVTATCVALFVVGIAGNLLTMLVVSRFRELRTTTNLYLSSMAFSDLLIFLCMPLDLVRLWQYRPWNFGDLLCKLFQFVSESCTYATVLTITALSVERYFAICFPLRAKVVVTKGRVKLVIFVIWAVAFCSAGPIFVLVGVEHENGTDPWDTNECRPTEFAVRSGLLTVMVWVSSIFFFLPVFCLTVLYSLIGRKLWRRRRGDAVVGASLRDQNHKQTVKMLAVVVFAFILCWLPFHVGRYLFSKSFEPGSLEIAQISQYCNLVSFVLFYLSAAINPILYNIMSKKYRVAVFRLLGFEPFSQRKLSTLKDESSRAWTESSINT
Sequence of Gamma-aminobutyric acid receptor subunit alpha-1 (P62813 whole entry): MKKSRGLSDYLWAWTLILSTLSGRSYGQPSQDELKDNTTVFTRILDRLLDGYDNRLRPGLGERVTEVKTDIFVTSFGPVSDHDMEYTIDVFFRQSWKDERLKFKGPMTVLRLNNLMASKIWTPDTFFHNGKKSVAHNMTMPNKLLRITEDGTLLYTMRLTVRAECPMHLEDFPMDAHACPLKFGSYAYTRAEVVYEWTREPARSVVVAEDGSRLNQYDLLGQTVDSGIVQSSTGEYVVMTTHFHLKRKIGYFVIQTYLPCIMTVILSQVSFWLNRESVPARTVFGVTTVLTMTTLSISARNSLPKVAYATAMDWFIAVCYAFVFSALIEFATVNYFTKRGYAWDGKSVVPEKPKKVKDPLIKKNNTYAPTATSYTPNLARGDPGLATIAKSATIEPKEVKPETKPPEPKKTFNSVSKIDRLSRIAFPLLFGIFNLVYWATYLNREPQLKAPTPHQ
Sequence of Sodium-dependent dopamine transporter (Q01959 whole entry): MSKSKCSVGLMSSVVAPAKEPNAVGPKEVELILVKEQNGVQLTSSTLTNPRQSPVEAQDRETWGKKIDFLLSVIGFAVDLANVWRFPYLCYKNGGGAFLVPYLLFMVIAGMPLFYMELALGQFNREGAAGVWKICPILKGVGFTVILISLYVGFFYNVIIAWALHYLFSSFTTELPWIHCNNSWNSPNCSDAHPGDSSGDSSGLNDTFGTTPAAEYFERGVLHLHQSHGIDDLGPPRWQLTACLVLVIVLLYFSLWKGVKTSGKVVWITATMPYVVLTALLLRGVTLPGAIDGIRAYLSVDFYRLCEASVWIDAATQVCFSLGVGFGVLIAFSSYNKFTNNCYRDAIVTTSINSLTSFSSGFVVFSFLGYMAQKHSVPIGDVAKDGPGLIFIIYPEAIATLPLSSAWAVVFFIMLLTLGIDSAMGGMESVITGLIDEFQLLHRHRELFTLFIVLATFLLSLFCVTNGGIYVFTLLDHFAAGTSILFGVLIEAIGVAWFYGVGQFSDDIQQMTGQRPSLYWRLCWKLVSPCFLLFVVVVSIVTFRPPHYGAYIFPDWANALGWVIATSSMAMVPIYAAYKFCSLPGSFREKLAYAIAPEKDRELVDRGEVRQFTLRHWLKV
Sequence of D(3) dopamine receptor (P35462 whole entry): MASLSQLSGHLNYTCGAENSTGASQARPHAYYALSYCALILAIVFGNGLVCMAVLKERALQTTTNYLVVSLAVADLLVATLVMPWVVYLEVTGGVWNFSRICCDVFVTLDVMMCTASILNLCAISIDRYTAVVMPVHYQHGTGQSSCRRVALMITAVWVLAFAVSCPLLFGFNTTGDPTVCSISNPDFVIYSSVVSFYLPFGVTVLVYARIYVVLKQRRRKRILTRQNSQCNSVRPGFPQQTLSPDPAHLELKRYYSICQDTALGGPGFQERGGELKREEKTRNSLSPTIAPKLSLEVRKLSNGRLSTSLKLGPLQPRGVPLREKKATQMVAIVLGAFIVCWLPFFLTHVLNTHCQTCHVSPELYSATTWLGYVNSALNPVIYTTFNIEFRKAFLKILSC

AC50 (Motilin receptor) | AC50 [1] | AC50 [2] | AC50 [3] | AC50 (Cannabinoid receptor 1) | AC50 [4] | AC50 [5] | AC50 [6] | AC50 (D(3) dopamine receptor) | AC50 (Adenosine receptor A2a) | AC50 [7] | AC50 [8] | AC50 [9] | AC50 [10] | AC50 [11] | Compound
> 30 µM | 10 µM | > 30 µM | > 30 µM | > 30 µM | > 30 µM | > 30 µM | > 30 µM | 0.003 µM | > 30 µM | 25 µM | > 30 µM | > 30 µM | > 30 µM | > 30 µM | C=CCN1CCCC1CNC(=O)c1cc(S(N)(=O)=O)cc(OC)c1OC (stereo not given) [VERALIPRIDE]
> 30 µM | > 30 µM | > 30 µM | > 30 µM | > 30 µM | > 30 µM | > 30 µM | > 30 µM | > 30 µM | > 30 µM | > 30 µM | > 30 µM | > 30 µM | > 30 µM | > 30 µM | O=C(NCCNCC(O)COc1ccc(O)cc1)N1CCOCC1 (stereo not given) [XAMOTEROL]
